One block for each compound: values may come before it.
Columns and labels:
[1] = target: T1, Substance-K receptor (Homo sapiens) (UniProt P21452); settings: Bronchus
T1 sequence (whole entry): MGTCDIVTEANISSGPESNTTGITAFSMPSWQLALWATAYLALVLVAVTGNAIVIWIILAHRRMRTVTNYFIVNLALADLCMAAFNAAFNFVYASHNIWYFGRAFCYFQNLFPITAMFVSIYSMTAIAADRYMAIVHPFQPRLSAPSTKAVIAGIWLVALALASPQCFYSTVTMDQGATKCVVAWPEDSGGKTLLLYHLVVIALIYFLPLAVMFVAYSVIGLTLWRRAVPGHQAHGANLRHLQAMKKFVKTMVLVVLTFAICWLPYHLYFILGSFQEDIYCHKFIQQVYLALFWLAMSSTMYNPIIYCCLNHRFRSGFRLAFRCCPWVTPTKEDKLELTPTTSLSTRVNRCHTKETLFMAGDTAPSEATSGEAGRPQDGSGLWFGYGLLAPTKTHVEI
Description: Binding constant towards Tachykinin receptor 2 using NKA as agonist on human bronchus

[2] = target: T2, Substance-P receptor (Homo sapiens, UniProt P25103); settings: Artery
Description: (§1) Binding constant towards Tachykinin receptor 1 using ASMSP as agonist on human pulmonary artery tissues

[3] = target: T3, Substance-K receptor (Oryctolagus cuniculus) (UniProt P79218); experiment: Binding constant towards Tachykinin receptor 2 using BANK as agonist on rabbit pulmonary artery tissues.
T3 sequence (whole entry): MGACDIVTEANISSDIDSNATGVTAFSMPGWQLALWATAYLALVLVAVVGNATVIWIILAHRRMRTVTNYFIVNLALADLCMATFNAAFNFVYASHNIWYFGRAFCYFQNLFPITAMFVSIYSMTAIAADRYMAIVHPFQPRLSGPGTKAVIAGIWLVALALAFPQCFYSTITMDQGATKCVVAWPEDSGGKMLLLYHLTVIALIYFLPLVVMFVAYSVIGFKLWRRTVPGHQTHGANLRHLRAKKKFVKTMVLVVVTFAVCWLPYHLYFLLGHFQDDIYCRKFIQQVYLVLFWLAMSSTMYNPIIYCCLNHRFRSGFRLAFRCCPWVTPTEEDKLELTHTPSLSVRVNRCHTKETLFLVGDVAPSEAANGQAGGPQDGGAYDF

[4] = target: T2, Substance-P receptor; settings: Artery; remark: listed apart in the source
Description: as §1

[5] = target: T4, Substance-K receptor (Homo sapiens, UniProt P21452); experiment: Binding affinity against human cloned Tachykinin receptor 2 expressed in MEL cells; assay type: cell-based
T4 sequence (P21452 whole entry): T1 sequence (whole entry)

[6] = target: T2, Substance-P receptor; experiment: Binding affinity against human cloned Tachykinin receptor 1 expressed in MEL cells; assay type: cell-based
[7] = target: T5, Neuromedin-K receptor (Homo sapiens, UniProt P29371); experiment: Binding affinity against human cloned Tachykinin receptor 3 expressed in MEL cells; assay type: cell-based
T5 sequence (P29371 whole entry): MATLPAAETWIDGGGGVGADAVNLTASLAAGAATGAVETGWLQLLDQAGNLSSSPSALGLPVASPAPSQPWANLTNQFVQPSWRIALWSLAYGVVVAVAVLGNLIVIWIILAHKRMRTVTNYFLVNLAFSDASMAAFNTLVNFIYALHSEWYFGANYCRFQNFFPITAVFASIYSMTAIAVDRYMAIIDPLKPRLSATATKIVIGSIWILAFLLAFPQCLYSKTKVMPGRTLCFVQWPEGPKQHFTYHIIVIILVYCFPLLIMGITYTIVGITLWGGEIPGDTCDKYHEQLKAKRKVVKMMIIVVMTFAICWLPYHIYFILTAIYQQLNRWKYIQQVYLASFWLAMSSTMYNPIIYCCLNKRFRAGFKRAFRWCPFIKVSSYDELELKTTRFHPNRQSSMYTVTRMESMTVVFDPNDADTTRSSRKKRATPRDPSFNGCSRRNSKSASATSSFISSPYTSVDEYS

[8] = tested on: Rattus norvegicus; experiment: Area under curve by intravenous administration at a dose of 10 uM/kg in rat was determined; assay type: ADME, organism-based; settings: in vivo
[9] = Half life period at a dose of 10 uM/kg in rat was determined; assay type: ADME, organism-based; settings: in vivo
[10] = Plasma clearance in rat at a dose of 10 uM/kg in rat was determined; assay type: ADME, organism-based; settings: read-out: Clp
[11] = Volume distribution at a dose of 1 uM/kg in dog was determined; assay type: ADME, organism-based, Canis lupus familiaris; settings: in vivo, read-out: Vdss
[12] = tested on: Canis familiaris; experiment: Area under curve by oral administration at a dose of 10 uM/kg in dog was determined; assay type: ADME, organism-based, Canis lupus familiaris; settings: in vivo
[13] = Maximum concentration by oral administration at a dose of 10 umol/kg in dog was determined; assay type: ADME, organism-based, Canis lupus familiaris; design: dose 10 umol/kg, route oral; settings: in vivo
[14] = Maximum concentration by oral administration at a dose of 100 umol/kg in rat was determined; assay type: ADME, organism-based; design: dose 100 umol/kg, route oral; settings: in vivo
[15] = tested on: Rattus norvegicus; experiment: Area under curve by oral administration at a dose of 100 uM/kg in rat was determined; assay type: ADME, organism-based; settings: in vivo
[16] = Bioavailability by oral administration at a dose of 100 uM/kg in rat was determined; assay type: ADME, organism-based; settings: in vivo, read-out: Bioavailabiility
[17] = Tmax by oral administration at a dose of 10 uM/kg in dog was determined; assay type: ADME, organism-based, Canis lupus familiaris; settings: in vivo
[18] = Half life period at a dose of 1 uM/kg in dog was determined; assay type: ADME, organism-based, Canis lupus familiaris; settings: in vivo
[19] = Bioavailability by oral administration at a dose of 10 uM/kg in dog was determined; assay type: ADME, organism-based, Canis lupus familiaris; settings: in vivo, read-out: Bioavailabiility
[20] = Tmax by oral administration at a dose of 100 uM/kg in rat was determined; assay type: ADME, organism-based; settings: in vivo
[21] = Half-life period by oral administration at a dose of 10 uM/kg in dog was determined; assay type: ADME, organism-based, Canis lupus familiaris; settings: in vivo
[22] = tested on: Canis familiaris; experiment: Area under curve by intravenous administration at a dose of 1 uM/kg in dog was determined; assay type: ADME, organism-based, Canis lupus familiaris; settings: in vivo
[23] = Volume distribution at a dose of 10 uM/kg in rat was determined; assay type: ADME, organism-based; settings: in vivo, read-out: Vdss

T2 sequence (P25103 whole entry): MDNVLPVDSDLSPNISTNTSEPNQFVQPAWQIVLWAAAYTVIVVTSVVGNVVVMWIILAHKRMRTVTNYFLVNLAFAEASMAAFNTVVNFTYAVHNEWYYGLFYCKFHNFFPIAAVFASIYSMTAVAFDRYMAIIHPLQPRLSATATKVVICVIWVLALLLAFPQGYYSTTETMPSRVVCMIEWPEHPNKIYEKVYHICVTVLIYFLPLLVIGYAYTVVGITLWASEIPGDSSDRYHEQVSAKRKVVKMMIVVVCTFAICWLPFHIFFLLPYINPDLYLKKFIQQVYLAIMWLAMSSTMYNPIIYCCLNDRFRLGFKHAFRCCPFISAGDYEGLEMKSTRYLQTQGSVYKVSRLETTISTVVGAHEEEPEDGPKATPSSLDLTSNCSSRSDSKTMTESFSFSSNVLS

pKB [1]: 7.5
pKB [2]: 8.9
pKB [3]: 8.26
Structure (SMILES): CN(C[C@@H](CCN1CCC(c2ccccc2[S@+](C)[O-])CC1)c1ccc(Cl)c(Cl)c1)C(=O)c1cc(C#N)cc2ccccc12 (stereo in doubt) [listing 1 of 2 here]

Structure (SMILES): COc1cc(C(=O)N2CC[C@](CCN3CCC(C(N)=O)(c4ccccc4)CC3)(c3ccc(Cl)c(Cl)c3)C2)cc(OC)c1OC
pKB [4]: 6.9
pKB [1]: 6.4
Ki [5]: 1 nM
Ki [6]: 0.3 nM
Ki [7]: 200 nM
pKB [3]: 6.7

AUC [8]: 3200 ng·h/mL
half-life [9]: 1.8 h
clearance [10]: 32.6 mL/min/kg
Vd [11]: 2 L/kg
AUC [12]: 2000 ng·h/mL
Ki [5]: 0.6 nM
Cmax [13]: 364 ng/mL
Cmax [14]: 421 ng/mL
AUC [15]: 3010 ng·h/mL
bioavailability [16]: 9%
Tmax [17]: 2 h
half-life [18]: 3.8 h
bioavailability [19]: 18%
Tmax [20]: 2 h
Ki [6]: 0.1 nM
half-life [21]: 2.3 h
Ki [7]: 74 nM
AUC [22]: 1100 ng·h/mL
Vd [23]: 3.7 L/kg
Structure (SMILES): CN(C[C@@H](CCN1CCC(c2ccccc2[S@+](C)[O-])CC1)c1ccc(Cl)c(Cl)c1)C(=O)c1cc(C#N)cc2ccccc12 (stereo in doubt) [listing 2 of 2 here]

Source: ChEMBL document CHEMBL1133817, “Discovery of novel, orally active dual NK1/NK2 antagonists” (Bioorg Med Chem Lett, 2001)
